{"source": "patent US20160222021A1", "about": "“ARYL ETHER-BASE KINASE INHIBITORS” (BRISTOL-MYERS SQUIBB COMPANY, priority 2013, published 2016)", "key": {"PC12 cells": {"test_system": "PC12 cells", "conditions": "Kuai et al. 2011; cited from earlier work"}, "mice": {"test_system": "mice", "assay": "formalin paw test", "type": "in vivo, mouse", "conditions": "relative to gabapentin 200 mg/kg = 100% response", "description": "AAK1 homozygous (−/−) and their wild-type (+/+) littermates were tested using the formalin paw test in order to assess their acute and tonic nociceptive responses. For these tests, Automatic Nociception Analyzers (purchased from the Ozaki lab at University of California, San Diego) were used. A metal band was placed around the left hind paw of each mouse 30 minutes prior to testing. After the 30-minute acclimation period, 20 μl of 5% formalin is subcutaneously injected in the dorsal surface of the left hind paw. Mice were individually housed in cylindrical chambers for 45 minutes. Fresh 5% formalin solution was prepared by diluting formaldehyde (Formalde-fresh 20%, Fisher Scientific, Fair Lawn, N.J.) with distilled water. Investigatory compounds were administered 30 minutes prior to formalin injection.\nA computer recorded flinches per minute, total flinches for phase I (acute phase=first 8 minutes), and total flinches for phase II (tonic phase=time between minutes 20-40) through an electromagnetic field. See Yaksh T L, Ozaki G, McCumber D, Rathbun M, Svensson C, Malkmus S, Yaksh M C. An automated flinch detecting system for use in the formalin nociceptive bioassay. J Appl Physiol., 2001; 90:2386-402.\nThe same test was used to confirm that the administration of an AAK1 inhibitor can also affect pain response.\nA compound of the disclosure was tested in this assay at different doses. Gabapentin and pregabalin were used as positive controls. Results are shown below in Table 2, wherein the effect of gabapentin at 200 mg/kg is considered a 100% response, the % response for the other compounds is relative to the 200 mg/kg dose of gabapentin, “sc” means subcutaneous administration."}}}
{"smiles": "COC(=O)[C@@]1(O)C[C@H]2O[C@]1(C)n1c3ccccc3c3c4c(c5c6ccccc6n2c5c31)C(=O)NC4", "note": "[Example K252a, K252a]", "values": [{"measurement": "effect on Neuregulin-1 induced neurite outgrowth", "setting": "PC12 cells", "value": "potentiation of Neuregulin-1 induced neurite outgrowth"}]}
{"smiles": "CC(C)C[C@H](CN)CC(=O)O", "note": "[Pregabalin]", "values": [{"measurement": "Response", "setting": "mice; 50 mg/kg sc", "value": 90, "unit": "%"}]}
{"smiles": "CC(C)C[C@@H](N)COc1ccc2c(c1)OCc1cnccc1-2", "note": "[Compound 5, (R)-1-(5H-chromeno[3,4-c]pyridin-8-yloxy)-4-methylpentan-2-amine]", "values": [{"measurement": "Response", "setting": "mice; 10 mg/kg sc", "value": 45, "unit": "%"}, {"measurement": "Response", "setting": "mice; 30 mg/kg sc", "value": 88, "unit": "%"}]}
